biological target: T1, p53 Y220C (Homo sapiens, UniProt P04637, Y220C); assay: In vitro DNA binding activity assay (HTRF / TR-FRET): stabilization of p53 Y220C and increase of its DNA binding activity; assay type: biochemical; settings: recombinant His-tagged p53 Y220C DNA binding domain (aa 94-312), biotin-labeled consensus DNA, incubated at 27° C. or 29° C. for 60 min
T1 construct: The recombinant protein was a truncation mutant containing only amino acids 94-312 of p53; made in house; host or cells: E. coli
In short: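 Stabilization of the mutant is inferred from increased binding of His-tagged p53 Y220C to a biotin-labeled consensus DNA, detected by HTRF with europium-streptavidin and APC-anti-His antibody. The concentration giving a 50% rise over compound-free binding is reported as SC150.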

T1 sequence (P04637 94-312, change not shown): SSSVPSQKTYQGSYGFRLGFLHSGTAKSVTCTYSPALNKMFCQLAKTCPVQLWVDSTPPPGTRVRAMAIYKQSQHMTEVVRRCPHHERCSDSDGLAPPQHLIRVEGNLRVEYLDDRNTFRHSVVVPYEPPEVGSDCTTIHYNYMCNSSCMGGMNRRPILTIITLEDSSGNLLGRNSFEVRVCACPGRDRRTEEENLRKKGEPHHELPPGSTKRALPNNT

With `COc1cc(S(N)(=O)=O)ccc1NCC#Cc1cc2c(NC3CCN(C[C@@H]4COC(C)(C)O4)CC3)cccc2n1CC(F)(F)F` [Compound 568A, 4-[(3-{4-[(1-{[(4R)-2,2-dimethyl-1,3-dioxolan-4-yl]methyl}piperidin-4-yl)amino]-1-(2,2,2-trifluoroethyl)-1H-indol-2-yl}prop-2-yn-1-yl)amino]-3-methoxybenzene-1-sulfonamide] as the compound, how does the “SC150 (concentration of the compound required to increase the DNA binding activity by 50%)” value read?
Its value is “+ (+ = 0 μM ≤ SC150 < 0.05 μM)”.

Which “SC150 (concentration of the compound required to increase the DNA binding activity by 50%)” value does the source give for `COCC(O)CN1CCC(Nc2cccc3c2cc(C#CCNc2ccc(S(C)(=O)=O)cc2OC)n3CC(F)(F)F)CC1` (stereo not shown) [Compound 569A, 1-{4-[(2-{3-[(4-methanesulfonyl-2-methoxyphenyl)amino]prop-1-yn-1-yl}-1-(2,2,2-trifluoroethyl)-1H-indol-4-yl)amino]piperidin-1-yl}-3-methoxypropan-2-ol] here?
Its value is “+ (+ = 0 μM ≤ SC150 < 0.05 μM)”.

Which “SC150 (concentration of the compound required to increase the DNA binding activity by 50%)” value does the source give for `COCCN(C)S(=O)(=O)c1ccc(NCC#Cc2cc3c(NC4CCN(CC(O)CO)CC4)cccc3n2CC(F)(F)F)c(OC)c1` (stereo not shown) [Compound 572A, 4-{[3-(4-{[1-(2,3-dihydroxypropyl)piperidin-4-yl]amino}-1-(2,2,2-trifluoroethyl)-1H-indol-2-yl)prop-2-yn-1-yl]amino}-3-methoxy-N-(2-methoxyethyl)-N-methylbenzene-1-sulfonamide] here?
The value was “+ (+ = 0 μM ≤ SC150 < 0.05 μM)”.

With `COCC(O)CN1CCC(Nc2cccc3c2cc(C#CCNc2ccc(S(N)(=O)=O)cc2OC)n3CC(F)(F)F)CC1` (stereo not shown) [Compound 574A, 4-{[3-(4-{[1-(2-hydroxy-3-methoxypropyl)piperidin-4-yl]amino}-1-(2,2,2-trifluoroethyl)-1H-indol-2-yl)prop-2-yn-1-yl]amino}-3-methoxybenzene-1-sulfonamide] as the compound, how does the “SC150 (concentration of the compound required to increase the DNA binding activity by 50%)” value read?
Its value is “+ (+ = 0 μM ≤ SC150 < 0.05 μM)”.

For `COCC(=O)N1CCC(Nc2cccc3c2cc(C#CCNc2ccc(S(N)(=O)=O)cc2OC)n3CC(F)(F)F)CC1` [Compound 575A], which “SC150 (concentration of the compound required to increase the DNA binding activity by 50%)” value is on record?
Its value is “+ (+ = 0 μM ≤ SC150 < 0.05 μM)”.

Which “SC150 (concentration of the compound required to increase the DNA binding activity by 50%)” value does the source give for `COc1cc(S(=O)(=O)N2CCN(C(C)=O)CC2)ccc1NCC#Cc1cc2c(NC3CCN(CC(O)CO)CC3)cccc2n1CC(F)(F)F` (stereo not shown) [Compound 577A, 1-[4-(4-{[3-(4-{[1-(2,3-dihydroxypropyl)piperidin-4-yl]amino}-1-(2,2,2-trifluoroethyl)-1H-indol-2-yl)prop-2-yn-1-yl]amino}-3-methoxybenzenesulfonyl)piperazin-1-yl]ethan-1-one] here?
The value was “+ (+ = 0 μM ≤ SC150 < 0.05 μM)”.

Which “SC150 (concentration of the compound required to increase the DNA binding activity by 50%)” value does the source give for `COc1cc(S(C)(=O)=O)ccc1NCC#Cc1cc2c(NC3CCN(C[C@H]4COC(=O)O4)CC3)cccc2n1CC(F)(F)F` [Compound 578A, (4S)-4-({4-[(2-{3-[(4-methanesulfonyl-2-methoxyphenyl)amino]prop-1-yn-1-yl}-1-(2,2,2-trifluoroethyl)-1H-indol-4-yl)amino]pipendin-1-yl}methyl)-1,3-dioxolan-2-one] here?
The value was “+ (+ = 0 μM ≤ SC150 < 0.05 μM)”.

With `COCC(CN1CCC(Nc2cccc3c2cc(C#CCNc2ccc(S(C)(=O)=O)cc2OC)n3CC(F)(F)F)CC1)OC` (stereo not shown) [Compound 580A, N-[1-(2,3-dimethoxypropyl)piperidin-4-yl]-2-{3-[(4-methanesulfonyl-2-methoxyphenyl)amino]prop-1-yn-1-yl}-1-(2,2,2-trifluoroethyl)-1H-indol-4-amine] as the compound, how does the “SC150 (concentration of the compound required to increase the DNA binding activity by 50%)” value read?
The value was “+ (+ = 0 μM ≤ SC150 < 0.05 μM)”.

How did the “SC150 (concentration of the compound required to increase the DNA binding activity by 50%)” value turn out when `COCC(CN1CCC(Nc2cccc3c2cc(C#CCNc2ccc(S(N)(=O)=O)cc2OC)n3CC(F)(F)F)CC1)OC` (stereo not shown) [Compound 581A, 4-{[3-(4-{[1-(2,3-dimethoxypropyl)piperidin-4-yl]amino}-1-(2,2,2-trifluoroethyl)-1H-indol-2-yl)prop-2-yn-1-yl]amino}-3-methoxybenzene-1-sulfonamide] was run?
The value was “+ (+ = 0 μM ≤ SC150 < 0.05 μM)”.

`COc1cc(S(=O)(=O)N2CCOCC2)ccc1NCC#Cc1cc2c(NC3CCN(CC(O)CO)CC3)cccc2n1CC(F)(F)F` (stereo not shown) [Compound 582A, 3-(4-{[2-(3-{[2-methoxy-4-(morpholine-4-sulfonyl)phenyl]amino}prop-1-yn-1-yl)-1-(2,2,2-trifluoroethyl)-1H-indol-4-yl]amino}piperidin-1-yl)propane-1,2-diol] was tested. Which “SC150 (concentration of the compound required to increase the DNA binding activity by 50%)” value did it give?
Its value is “+ (+ = 0 μM ≤ SC150 < 0.05 μM)”.

For `COc1cc(C(N)=O)ccc1NCC#Cc1cc2c(NC3CCN(C[C@@H](O)CO)CC3)cccc2n1CC(F)(F)F` [Compound 583A], which “SC150 (concentration of the compound required to increase the DNA binding activity by 50%)” value is on record?
Its value is “+ (+ = 0 μM ≤ SC150 < 0.05 μM)”.

`COc1cc(S(C)(=O)=O)ccc1NCC#Cc1cc2c(NC3CCN(CCOC(=O)C(C)C)CC3)cccc2n1CC(F)(F)F` [Compound 584A, 2-{4-[(2-{3-[(4-methanesulfonyl-2-methoxyphenyl)amino]prop-1-yn-1-yl}-1-(2,2,2-trifluoroethyl)-1H-indol-4-yl)amino]piperidin-1-yl} ethyl 2-methylpropanoate] was tested. Which “SC150 (concentration of the compound required to increase the DNA binding activity by 50%)” value did it give?
The value was “+ (+ = 0 μM ≤ SC150 < 0.05 μM)”.

For `CCC(=O)OCCN1CCC(Nc2cccc3c2cc(C#CCNc2ccc(S(C)(=O)=O)cc2OC)n3CC(F)(F)F)CC1` [Compound 585A, 2-{4-[(2-{3-[(4-methanesulfonyl-2-methoxyphenyl)amino]prop-1-yn-1-yl}-1-(2,2,2-trifluoroethyl)-1H-indol-4-yl)amino]piperidin-1-yl}ethyl propanoate], which “SC150 (concentration of the compound required to increase the DNA binding activity by 50%)” value is on record?
Its value is “+ (+ = 0 μM ≤ SC150 < 0.05 μM)”.

For `CCC(=O)OCC(CN1CCC(Nc2cccc3c2cc(C#CCNc2ccc(S(C)(=O)=O)cc2OC)n3CC(F)(F)F)CC1)OC(=O)CC` (stereo not shown) [Compound 586A, 1-{4-[(2-{3-[(4-methanesulfonyl-2-methoxyphenyl)amino]prop-1-yn-1-yl}-1-(2,2,2-trifluoroethyl)-1H-indol-4-yl)amino]piperidin-1-yl}-3-(propanoyloxy)propan-2-yl propanoate], which “SC150 (concentration of the compound required to increase the DNA binding activity by 50%)” value is on record?
Its value is “+ (+ = 0 μM ≤ SC150 < 0.05 μM)”.

How did the “SC150 (concentration of the compound required to increase the DNA binding activity by 50%)” value turn out when `CCC(=O)OCC(CN1CCC(Nc2cccc3c2cc(C#CCNc2ccc(S(N)(=O)=O)cc2OC)n3CC(F)(F)F)CC1)OC(=O)CC` (stereo not shown) [Compound 587A, 1-{4-[(2-{3-[(2-methoxy-4-sulfamoylphenyl)amino]prop-1-yn-1-yl}-1-(2,2,2-trifluoroethyl)-1H-indol-4-yl)amino]piperidin-1-yl}-3-(propanoyloxy)propan-2-yl propanoate] was run?
The value was “+ (+ = 0 μM ≤ SC150 < 0.05 μM)”.

With `COc1cc(S(C)(=O)=O)ccc1NCC#Cc1cc2c(NC3CCN(CC(COC(=O)C(C)C)OC(=O)C(C)C)CC3)cccc2n1CC(F)(F)F` (stereo not shown) [Compound 588A, 1-{4-[(2-{3-[(4-methanesulfonyl-2-methoxyphenyl)amino]prop-1-yn-1-yl}-1-(2,2,2-trifluoroethyl)-1H-indol-4-yl)amino]piperidin-1-yl}-3-[(2-methylpropanoyl)oxy]propan-2-yl 2-methylpropanoate] as the compound, how does the “SC150 (concentration of the compound required to increase the DNA binding activity by 50%)” value read?
Its value is “+++ (+++ = 0.1 μM ≤ SC150 < 0.2 μM)”.
